Measurements as given in patent US9290457B2, “Substituted dihydropyrimidinones and their use as inhibitors of neutrophil elastase activity” (Boehringer Ingelheim International GmbH, priority 2014, dated 2016).

Experiments:
[1] = tested on: human hepatocytes; experiment: Metabolic stability with human hepatocytes; type: in vitro ADME; details: 1 μM compound, well stirred model
Experimental: Assay for the Determination of Metabolic Stability with Human Hepatocytes
The metabolic degradation of the test compound is assayed in a human hepatocyte suspension. Human hepatocytes (typically cryopreserved) are incubated in an appropriate buffer system (e.g. Dulbecco's modified eagle medium plus 3.5 μg glucagon/500 mL, 2.5 mg insulin/500 mL and 3.75 mg/500 mL hydrocortison) containing 5% species serum. Following a (typically) 30 min preincubation in an incubator (37° C., 10% CO2), 5 μl of test compound solution (80 μM; from 2 mM stock solution in DMSO diluted 1:25 with medium) are added into 395 μl hepatocyte suspension (cell density in the range 0.25-5*10^6 cells/mL, typically 1*10^6 cells/mL; final concentration of test compound 1 μM, final DMSO concentration 0.05%). The cells are incubated for six hours (incubator, orbital shaker) and samples (25 μl) are taken at 0, 0.5, 1, 2, 4 and 6 hours. Samples are transferred into acetonitrile and pelleted by centrifugation (5 min) The supernatant is transferred to a new 96-deepwell plate, evaporated under nitrogen and resuspended. The decline of parent compound is analyzed by LC-MS/MS.
The intrinsic clearance CL_[…] is calculated as follows: CL_[…]=Dose/AUC=(Co/CD)/(AUD+clast/k)*1,000/60 (Co: initial concentration in the incubation [μM], CD: cell density of vital cells [10^6 cells/mL], AUD: area under the data [μM*h], clast: concentration of last data point [μM], k: slope of the regression line for parent decline [h^−1])
The calculated in vitro hepatic intrinsic clearance Q h can be scaled up to the intrinsic in vivo hepatic clearance and used to predict hepatic in vivo blood clearance (CL) by the use of a liver model (well stirred model): CL_[…]_INVIVO[ml/min/kg]=(CL_[…][μL/min/10^6cells]*hepatocellularity[10^6cells/g liver]*liver factor[g/kg bodyweight])/1,000 CL[ml/min/kg]=CL_[…]_INVIVO[ml/min/kg]*hepatic blood flow [ml/min/kg]/(CL_[…]_INVIVO[ml/min/kg]+hepatic blood flow[ml/min/kg]) Qh[%]=CL[ml/min/kg]/hepatic blood flow[ml/min/kg]) (Hepatocellularity, human: 120*10^6 cells/g liver; liver factor, human: 25.7 g/kg bodyweight; blood flow, human: 21 ml/(min*kg)) Based on this assay.
The calculated in vitro hepatic intrinsic clearance values of selected compounds in the metabolic stability assay with human hepatocytes described above are listed in Table 4.

[2] = target: T1, neutrophil elastase (Homo sapiens (Human), UniProt P08246); experiment: Neutrophil elastase inhibitory activity in human plasma; type: biochemical; details: zymosan-stimulated human plasma, substrate MeOSuc-Ala-Ala-Pro-Val-AMC
Experimental: Assay for the Determination of Neutrophil Elastase Inhibitory Activity in Human Plasma
Citrated blood from human healthy donors is mixed with zymosan suspension and incubated at room temperature. This leads to the stimulation of neutrophils and the release of neutrophil elastase into the plasma. The stimulated blood is centrifuged to generate the neutrophil elastase enriched plasma.
Preparation of Zymosan Working Solution:
• A single 45 ml blood sample is taken into a 50 ml tube containing citrate (3.13%, 5 mL) and the tube is gently inverted 4 times. • Immediately after blood sampling, zymosan working solution (5 mL) is added. • After the addition of zymosan working solution, the tubes are capped, mixed gently and incubated at 22° C. for 15 min on a shaker at 20 rpm. • Make 10 ml aliquots after the incubation time. • Centrifuge the 15 ml tubes at 800 g for 15 min at 4° C. in a Jouan centrifuge. • Harvest the plasma and make 1-5 ml aliquots. • Store the plasma at −80° C.
Various concentrations of the neutrophil elastase inhibitor are incubated with plasma. Subsequently, the enzyme activity is measured using the fluorogenic substrate MeOSuc-Ala-Ala-Pro-Val-AMC (Bachem Cat. No. I-1270, substrate concentration: 250 μM, pH 7.5, 25 mM TRIS buffer, 250 mM NaCl) in analogous fashion as described for the human neutrophil assay. A dose response curve is generated to calculate the EC50 of the inhibitor. The analysis of the data is performed by the calculation of the percentage of fluorescence in the presence of the test compound compared to the fluorescence of the vehicle control after subtracting the background fluorescence: An inhibitor of the neutrophil elastase enzyme will give values between 100% control (no inhibition) and 0% control (complete inhibition).
Target sequence in this assay (P08246 30-267): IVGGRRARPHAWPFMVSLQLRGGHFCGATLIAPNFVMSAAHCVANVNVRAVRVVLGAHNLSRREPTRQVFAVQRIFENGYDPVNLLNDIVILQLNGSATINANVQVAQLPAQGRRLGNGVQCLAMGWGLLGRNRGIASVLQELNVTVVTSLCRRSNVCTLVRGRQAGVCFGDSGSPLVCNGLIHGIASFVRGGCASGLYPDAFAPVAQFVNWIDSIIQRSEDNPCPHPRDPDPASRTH

[3] = target: T1, neutrophil elastase; experiment: Human Neutrophil Elastase Assay; type: biochemical; details: substrate MeOSuc-Ala-Ala-Pro-Val-AMC
Target sequence in this assay (P08246 30-247): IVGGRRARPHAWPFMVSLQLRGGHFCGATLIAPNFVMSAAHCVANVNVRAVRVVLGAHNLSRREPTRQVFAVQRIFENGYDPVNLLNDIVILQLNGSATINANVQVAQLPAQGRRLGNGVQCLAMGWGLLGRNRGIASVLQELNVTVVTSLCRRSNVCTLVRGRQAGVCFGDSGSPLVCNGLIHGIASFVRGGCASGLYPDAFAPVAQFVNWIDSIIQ

[4] = Metabolic stability with human liver microsomes; type: in vitro ADME; details: pooled human liver microsomes, 1 μM compound, 37° C.; for half-life at 1 μM: pH 7.6, read-out: t1/2 INVITRO
Experimental: Assay for the Determination of Metabolic Stability with Human Liver Microsomes
The metabolic degradation of the test compound is assayed at 37° C. with pooled human liver microsomes. The final incubation volume of 100 μl per time point contains TRIS buffer pH 7.6 (0.1 M), magnesium chloride (5 mM), microsomal protein (1 mg/ml) and the test compound at a final concentration of 1 μM. Following a short preincubation period at 37° C., the reactions are initiated by addition of beta-nicotinamide adenine dinucleotide phosphate, reduced form (NADPH, 1 mM) and terminated by transferring an aliquot into acetonitrile after different time points. Additionally, the NADPH-independent degradation is monitored in incubations without NADPH, terminated at the last time point. The [%] remaining test compound after NADPH independent incubation is reflected by the parameter c(control) (metabolic stability). The quenched incubations are pelleted by centrifugation (10,000 g, 5 min) An aliquot of the supernatant is assayed by LC-MS/MS for the amount of parent compound.
The half-life (t1/2 INVITRO) is determined by the slope of the semilogarithmic plot of the concentration-time profile. The intrinsic clearance (CL_[…]) is calculated by considering the amount of protein in the incubation: CL_[…][μl/min/mg protein]=(ln 2/(half-life[min]*protein content[mg/ml]))*1,000.
The half-life (t1/2 INVITRO) values of selected compounds in the metabolic stability assay human liver microsomes described above are listed in Table 3.

Row | Qh [1] [%] | EC50 [2] [nM] | IC50 [3] [nM] | t1/2 INVITRO [4] [h] | half-life at 1 μM [4] [h] | Compound
1 | 25 | 1 | < 1 | 2.17 | – | CC(=O)C1=C(C)N(c2cccc(C(F)(F)F)c2)C(=O)N(C)C1c1ccc(C#N)cc1C(=O)NCC#N (centres unmarked) [Example 1.6]
2 | 22 | 1 | < 1 | 1.83 | – | CC(=O)C1=C(C)N(c2cccc(C(F)(F)F)c2)C(=O)N(C)C1c1ccc(C#N)cc1C(=O)NC1CC1 (centres unmarked) [Example 1.8]
3 | 27 | 1 | < 1 | >2.17 | – | CC(=O)C1=C(C)N(c2cccc(C(F)(F)F)c2)C(=O)N(C)C1c1ccc(C#N)cc1C(=O)NCCF (centres unmarked) [Example 1.10]
4 | 15 | 2 | 1.4 | – | > 2.17 | CC(=O)C1=C(C)N(c2cccc(C(F)(F)F)c2)C(=O)N(C)C1c1ccc(C#N)cc1C(=O)NCC(C)(C)O (centres unmarked) [Example 1.22]
5 | 19 | 2 | < 1 | – | 2 | CC(=O)C1=C(C)N(c2cccc(C(F)(F)F)c2)C(=O)N(C)C1c1ccc(C#N)cc1C(=O)N1CCn2ncnc2C1 (centres unmarked) [Example 1.73]
6 | 16 | 1 | < 1 | >2.17 | – | CNC(=O)c1cc(C#N)ccc1[C@@H]1C(C(C)=O)=C(C)N(c2cccc(C(F)(F)F)c2)C(=O)N1C [Example 13.1]
7 | 5 | 1 | < 1 | – | > 2.17 | CC(=O)C1=C(C)N(c2cccc(C(F)(F)F)c2)C(=O)N(C)[C@@H]1c1ccc(C#N)cc1-c1ccc(=O)n(C)c1 [Example 16, 4-[(R)-5-Acetyl-3,6-dimethyl-2-oxo-1-(3-trifluoromethyl-phenyl)-1,2,3,4-tetrahydro-pyrimidin-4-yl]-3-(1-methyl-6-oxo-1,6-dihydro-pyridin-3-yl)-benzonitrile]
8 | 6 | 5 | < 1 | – | > 2.17 | CC(=O)C1=C(C)N(c2cccc(C(F)(F)F)c2)C(=O)N(C)[C@@H]1c1ccc(C#N)cc1-c1ccn(C)c(=O)c1 [Example 17, 4-[(R)-5-Acetyl-3,6-dimethyl-2-oxo-1-(3-trifluoromethyl-phenyl)-1,2,3,4-tetrahydro-pyrimidin-4-yl]-3-(1-methyl-2-oxo-1,2-dihydro-pyridin-4-yl)-benzonitrile]
